Results published in PMC9145754, “Novel Soloxolone Amides as Potent Anti-Glioblastoma Candidates: Design, Synthesis, In Silico Analysis and Biological Activities In Vitro and In Vivo” (Pharmaceuticals, 2022).

Experiments:
[1] = Brain accumulation of 12 by HPLC–MS/MS; assay type: in vivo, Balb/C nude mice; conditions: seven injections
Description: (seven injections were performed in total) and brain tissue was collected 48 h after the last injection of 12 followed by a high-performance liquid chromatography–tandem mass spectrometry (HPLC–MS/MS) analysis of the obtained samples (Figure 3D). This treatment regimen was chosen due to its common usage in the evaluation of antitumor activity of various low-molecular weight compounds in xenograft murine models. […] Before the HPLC–MS/MS analysis, chromatographic conditions and mass spectrometer parameters for detecting both semisynthetic triterpenoid 12 and the internal standard in the multiple reaction monitoring (MRM) mode were optimized. […]
To estimate the content of 12 in mouse brain tissue, a set of calibrators was prepared followed by their preparation protocol. The obtained samples were analyzed using the developed HPLC–MS/MS method and a calibration curve was built over the range of concentrations of 10–1000 ng/g. […] The validation of the method for quantification of 12 in mouse brain tissue and investigation of its pharmacokinetics will be the objectives of our next study. […]
To prepare calibrators, mouse brain tissue samples taken from three healthy untreated animals were pooled and homogenized as described above. […] The obtained supernatants were transferred into vial inserts and analyzed. To quantify 12 in experimental animal brain tissue, a sample weighing c.a. […]

glioblastoma cells = test: Cell survival at non-toxic concentrations; assay type: cell-based; conditions: 12 at 25–500 nM (non-toxic concentrations)
Description: To evaluate the antitumor potential of 12 more comprehensively, its effects at non-toxic concentrations (25–500 nM; cell survival of ≥90%) on a range of metastatic-related processes in glioblastoma cells were studied. Firstly, we investigated the inhibitory activity of 12 on the clonogenic capacity of tumor cells in vitro, which reflects their ability to form colonies from single cells which characterizes the stemness of tumor cells and plays a crucial role in metastasis.

[2] = system: hFF3 foreskin fibroblasts; test: MTT cytotoxicity assay, hFF3 fibroblasts; assay type: cell-based, human; conditions: Homo sapiens, HFF-3, 24 h
Description: In the first step of the study, we analyzed the cytotoxicity of novel soloxolone derivatives 1–12 in a panel of tumor cells, including human cervical carcinoma HeLa, human duodenal carcinoma HuTu-80 and murine melanoma B16 cells, as well as human non-transformed hFF3 foreskin fibroblasts. The cells were treated with derivatives for 24 h and cell viability was evaluated by 3-(4,5-dimethylthiazol-2-yl)-2,5-diphenyltetrazolium bromide (MTT) assay. SM was used as the reference compound.
The cells in the exponential growth phase were seeded in quadruplicate in 96-well plates at a density of 1 × 10^4 cells/well for HeLa, U87, U118, KELLY and Neuro2a cells; 1.5 × 10^4 cells/well for HuTu-80 cells; 2 × 10^4 cells/well for B16 cells; and 7 × 10^3 cells/well for hFF3 fibroblasts. Cells were incubated under standard conditions overnight followed by their treatment with the investigated compounds (1–20 µM) for 24 h. Then, 10 µL of MTT solution was added to the cells to a final concentration of 0.5 mg/mL and plates were placed under standard conditions for 3 h followed by an aspiration of MTT-containing medium and a dissolution of formazan crystals with 100 µL of DMSO. The absorbance of each well was read at test and reference wavelengths of 570 and 620 nm, respectively, on a Multiscan RC plate reader (Thermo LabSystems, Helsinki, Finland).

U87 cells = test: ROS production, DCFDA; assay type: cell-based, human; conditions: U87, 12 at 4 µM, 24 h
Description: To check the ability of 12 to influence ROS production, U87 cells treated with 12 (4 µM) for 24 h were stained with dichlorodihydrofluorescein diacetate (DCFDA) and analyzed by flow cytometry. […] Since ROS play an important role in the regulation of cell death, we further examined whether ROS production mediated the cytotoxicity of 12 with respect to glioblastoma cells.
Intracellular ROS levels in glioblastoma cells were measured using a DCFDA/H2DCFDA-Cellular ROS Assay Kit (Abcam, Cambridge, UK) according to the manufacturer’s instructions. Briefly, U87 cells were collected by trypsinization and stained with DCFDA at 20 μM for 30 min under standard conditions and seeded in 6-well plates at 2.8 × 10^5 cells/well. Next, the cells were treated with 12 at 4 µM for 24 h, followed by their harvesting and flow cytometry analysis. In total, 10,000 events were recorded for each sample.

## CC1(C)C(=O)C(C#N)=C[C@]2(C)C3=CC(=O)[C@@H]4[C@@H]5C[C@@](C)(C(=O)NCCc6c[nH]c7ccccc67)CC[C@]5(C)CC[C@@]4(C)[C@]3(C)CC[C@@H]12 [compound 12]
[1]; U87 tumor-bearing nude mice, 20 mg/kg i.p.
  concentration of 12 in brain tissue of tumor-bearing mice: 118 ng/g
[1]; nude mice, 50 mg/kg i.p., thrice a week, 48 h after last injection
  concentration of 12 in brain tissue: 490 ng/g
Glioblastoma cells
  cell survival: ≥ 90%
[2]
  IC50: 1400 ± 200 nM
U87 cells
  increase of ROS generation compared to the control: 1.9 fold
